From patent US4169846A, “Cis-platinum (II) complex of trans-l-1,2-diaminocyclohexane” (priority 1976, dated 1979)
Read-outs that look alike come from different tables or passages of the source.

Legend:
[1] = tested on: leukemia L 1210; assay: Anti-tumor activity on mice against leukemia L 1210; type: in vivo, CDF1 mice; conditions: days 1 and 5
Procedure: (§1) To test the anti-tumor activity of the compounds of the present invention, 100,000 cells/mouse of leukemia L 1210 and 1,000,000 cells/mouse of leukemia P 388 were transplanted by intraperitoneal injection to groups of CDF1 mice, respectively. One and 5 days after the transplantation, the test compound was administered by intraperitoneal injection to the mice.
(§2) The anti-tumor activity of the test compound was evaluated by means of T/C %, i.e., 100 times the mean survival period of the groups injected with the test compound divided by the means survival period of the comparison groups which were not injected with the test compound. The value of higher than 120% for L 1210 and higher than 125% for P 388 means that the test compound has a good effect.

[2] = tested on: male mice (ddN strain); assay: Acute toxicity test (intraperitoneal); type: in vivo; conditions: i.p., suspension in 0.3% CMC
Procedure: A suspension of the test substance in 0.3% CMC aqueous solution was intraperitoneally administered to the test mice in a dose amount of 0.5 ml per mouse.

[3] = tested on: ascites-tumor Sarcoma 180A; type: in vivo, ddN mice; conditions: for Growth Rate T/C (%): daily from one to five days
Procedure: To test the anti-tumor activity of the compounds of the present invention, cells of ascites-tumor Sarcoma 180A were transplanted by intraperitoneal injection to groups of ddN mice. From one to five days, the test compound was administered by intraperitoneal injection day after day. The ascites of the resulting mice was sampled to evaluate the anti-tumor activity of the test compound by means of the growth rate of the tumor, T/C % (groups with treatment/groups without treatment). In the table, the designations "-", "+", "++" and "+++" mean 100-66%, 65-41%, 40-11% and 10-0%, of the T/C %, respectively.

[4] = tested on: leukemia P 388; assay: Anti-tumor activity on mice against leukemia P 388; type: in vivo, CDF1 mice; conditions: days 1 and 5
Procedure: as §1, §2

`NC1CCCCC1N.[Cl][Pt][Cl]` (stereo not drawn) [Compound No. 2, Cis-dichloro(trans-d-1,2-diaminocyclohexane)platinum (II)] gave a T/C % ([1]; L 1210, 12.5 mg/kg i.p.) of 291%, a T/C % ([1]; L 1210, 25 mg/kg i.p.) of 110% and a T/C % ([1]; L 1210, 50 mg/kg i.p.) of 71%. For the same compound, the T/C % ([1]; L 1210, 100 mg/kg i.p.) was 71%, the T/C % ([1]; L 1210, 200 mg/kg i.p.) was 0% and the LD50 [2] was 22.5 mg/kg. The Evaluation ([3]; 1 mg/kg i.p.) was “++ (40-11%)”, the “Growth Rate T/C (%)” value ([3]; 1 mg/kg i.p.) was 8% and the Evaluation ([3]; 3 mg/kg i.p.) was “+++ (10-0%)”. The “Growth Rate T/C (%)” value ([3]; 3 mg/kg i.p.) was 1%.
`NC1CCCCC1N.O=C1[O][Pt][O]C1=O` (stereo not drawn) [Compound No. 5, Cis-oxalato(trans-d-1,2-diaminocyclohexane)platinum (II)] was tested, and the Evaluation ([3]; 3 mg/kg i.p.) was “+++ (10-0%)”, the “Growth Rate T/C (%)” value ([3]; 3 mg/kg i.p.) was 10% and the T/C % ([4]; P 388, 10 mg/kg i.p.) was 174%. For the same compound, the T/C % ([4]; P 388, 20 mg/kg i.p.) was 195% and the T/C % ([4]; P 388, 40 mg/kg i.p.) was 0%.
In the case of `CC(C(=O)[O-])C(=O)[O-].NC1CCCCC1N.[Pt+2]` [Compound No. 12, Cis-methylmalonato(trans-l-1,2-diaminocyclohexane)platinum(II)], the T/C % ([4]; P 388, 25 mg/kg i.p.) is reported as 115%, the T/C % ([4]; P 388, 50 mg/kg i.p.) is reported as 122% and the T/C % ([4]; P 388, 100 mg/kg i.p.) is reported as 141%.
`NC1CCCCC1N.O=C([O-])CC(=O)[O-].[Pt+2]` (stereo not drawn) [Compound No. 9, Cis-malonato(trans-l-1,2-diaminocyclohexane)platinum (II)] was tested, and the “Growth Rate T/C (%)” value ([3]; 3 mg/kg i.p.) was 85%, the Evaluation ([3]; 10 mg/kg i.p.) was “++ (40-11%)” and the “Growth Rate T/C (%)” value ([3]; 10 mg/kg i.p.) was 17%. The Evaluation ([3]; 30 mg/kg i.p.) was “+ ++”, the “Growth Rate T/C (%)” value ([3]; 30 mg/kg i.p.) was 1% and the Evaluation ([3]; 100 mg/kg i.p.) was “+++ (10-0%)”. For the same compound, the “Growth Rate T/C (%)” value ([3]; 100 mg/kg i.p.) was 4%, the T/C % ([4]; P 388, 75 mg/kg i.p.) was 202% and the T/C % ([4]; P 388, 150 mg/kg i.p.) was 104%.
In the case of `O=C(O)C(=O)O.[NH-][C@@H]1CCCC[C@H]1[NH-].[Pt+2]` (relative stereo) [Compound No. 6, Cis-oxalato(trans-l-1,2-diaminocyclohexane)platinum (II)], the Evaluation ([3]; 3 mg/kg i.p.) is reported as “+++ (10-0%)”, the “Growth Rate T/C (%)” value ([3]; 3 mg/kg i.p.) is reported as 9% and the T/C % ([4]; P 388, 6.25 mg/kg i.p.) is reported as 188%. For the same compound, the T/C % ([4]; P 388, 25 mg/kg i.p.) was 61%, the T/C % ([4]; P 388, 50 mg/kg i.p.) was 0% and the T/C % ([4]; P 388, 100 mg/kg i.p.) was 0%.
For `NC1CCCCC1N.O=C([O-])CC(=O)[O-].[Pt+2]` (stereo not drawn) [Compound No. 7, Cis-malonato(cis-1,2-diaminocyclohexane)platinum (II)], the Evaluation ([3]; 10 mg/kg i.p.) was “+ (65-41%)”, the “Growth Rate T/C (%)” value ([3]; 10 mg/kg i.p.) was 61% and the Evaluation ([3]; 30 mg/kg i.p.) was “+++ (10-0%)”. The “Growth Rate T/C (%)” value ([3]; 30 mg/kg i.p.) was 0%, the Evaluation ([3]; 100 mg/kg i.p.) was “+++ (10-0%)” and the “Growth Rate T/C (%)” value ([3]; 100 mg/kg i.p.) was 0%. For the same compound, the T/C % ([4]; P 388, 12.5 mg/kg i.p.) was 126%, the T/C % ([4]; P 388, 25 mg/kg i.p.) was 142% and the T/C % ([4]; P 388, 50 mg/kg i.p.) was 155%.
`NC1CCCCC1N.O=C1CC(=O)[O][Pt][O]1` (stereo not drawn) [Compound No. 8, Cis-malonato(trans-d-1,2-diaminocyclohexane)platinum (II)] was tested, and the Evaluation ([3]; 10 mg/kg i.p.) was “+ (65-41%)”, the “Growth Rate T/C (%)” value ([3]; 10 mg/kg i.p.) was 47% and the Evaluation ([3]; 30 mg/kg i.p.) was “+++ (10-0%)”. For the same compound, the “Growth Rate T/C (%)” value ([3]; 30 mg/kg i.p.) was 1%, the Evaluation ([3]; 100 mg/kg i.p.) was “+++ (10-0%)” and the “Growth Rate T/C (%)” value ([3]; 100 mg/kg i.p.) was 0%. The T/C % ([4]; P 388, 12.5 mg/kg i.p.) was 121%, the T/C % ([4]; P 388, 25 mg/kg i.p.) was 138% and the T/C % ([4]; P 388, 50 mg/kg i.p.) was 155%.
For `NC1CCCCC1N.O=C1[O][Pt][O]C1=O` (stereo not drawn) [Compound No. 4, Cis-oxalato(cis-1,2-diaminocyclohexane)platinum (II)], the “Growth Rate T/C (%)” value ([3]; 0.3 mg/kg i.p.) was 83%, the Evaluation ([3]; 1 mg/kg i.p.) was “+++ (10-0%)” and the “Growth Rate T/C (%)” value ([3]; 1 mg/kg i.p.) was 0%. The Evaluation ([3]; 3 mg/kg i.p.) was “+++ (10-0%)”, the “Growth Rate T/C (%)” value ([3]; 3 mg/kg i.p.) was 0% and the Evaluation ([3]; 10 mg/kg i.p.) was “+++ (10-0%)”. For the same compound, the “Growth Rate T/C (%)” value ([3]; 10 mg/kg i.p.) was 0%, the T/C % ([4]; P 388, 25 mg/kg i.p.) was 200% and the T/C % ([4]; P 388, 50 mg/kg i.p.) was 0%. It also gave a T/C % ([4]; P 388, 100 mg/kg i.p.) of 0%.
Work on “Cis-uracil(trans-l-1,2-diaminocyclohexane)platinum (II) [Compound No. 15]” yielded a T/C % ([4]; P 388, 50 mg/kg i.p.) of 155%, a T/C % ([4]; P 388, 100 mg/kg i.p.) of 181% and a T/C % ([4]; P 388, 200 mg/kg i.p.) of 178%.
“Cis-uracil(cis-1,2-diaminocyclohexane)platinum (II) [Compound No. 13]” gave a T/C % ([4]; P 388, 100 mg/kg i.p.) of 163%, a T/C % ([4]; P 388, 200 mg/kg i.p.) of 71% and a T/C % ([4]; P 388, 400 mg/kg i.p.) of 0%.
Compound `CC1C(=O)[O][Pt][O]C1=O.NC1CCCCC1N` [Compound No. 11, Cis-methylmalonato(trans-d-1,2-diaminocyclohexane)platinum(II)] has a T/C % ([4]; P 388, 25 mg/kg i.p.) of 121%, a T/C % ([4]; P 388, 50 mg/kg i.p.) of 138% and a T/C % ([4]; P 388, 100 mg/kg i.p.) of 154%.
“Cis-uracil(trans-d-1,2-diaminocyclohexane)platinum (II) [Compound No. 14]” showed a T/C % ([4]; P 388, 50 mg/kg i.p.) of 140%, a T/C % ([4]; P 388, 100 mg/kg i.p.) of 142% and a T/C % ([4]; P 388, 200 mg/kg i.p.) of 178%.
For `NC1CCCCC1N.[Cl][Pt][Cl]` (stereo not drawn) [cis-dichloro (1,2-DAC) Pt(II), reference compound], the Evaluation ([3]; 0.3 mg/kg i.p.) was “++ (40-11%)”, the “Growth Rate T/C (%)” value ([3]; 0.3 mg/kg i.p.) was 12% and the Evaluation ([3]; 1 mg/kg i.p.) was “++ (40-11%)”. For the same compound, the “Growth Rate T/C (%)” value ([3]; 1 mg/kg i.p.) was 19%, the Evaluation ([3]; 3 mg/kg i.p.) was “+++ (10-0%)” and the “Growth Rate T/C (%)” value ([3]; 3 mg/kg i.p.) was 3%.
Compound `NC1CCCCC1N.[Cl-].[Cl-].[Pt+2]` (stereo not drawn) [Compound No. 1, Cis-dichloro(cis-1,2-diaminocyclohexane)Platinum (II)] has a T/C % ([1]; L 1210, 6.25 mg/kg i.p.) of 198%, a T/C % ([1]; L 1210, 12.5 mg/kg i.p.) of 211% and a T/C % ([1]; L 1210, 25 mg/kg i.p.) of 164%. It also gave a T/C % ([1]; L 1210, 100 mg/kg i.p.) of 0%, a T/C % ([1]; L 1210, 200 mg/kg i.p.) of 0% and a T/C % ([1]; L 1210, 400 mg/kg i.p.) of 0%. For the same compound, the LD50 [2] was 11.3 mg/kg, the Evaluation ([3]; 1 mg/kg i.p.) was “+ (65-41%)” and the “Growth Rate T/C (%)” value ([3]; 1 mg/kg i.p.) was 57%. For the same compound, the Evaluation ([3]; 3 mg/kg i.p.) was “+++ (10-0%)”, the “Growth Rate T/C (%)” value ([3]; 3 mg/kg i.p.) was 3% and the Evaluation ([3]; 10 mg/kg i.p.) was “+++ (10-0%)”. For the same compound, the “Growth Rate T/C (%)” value ([3]; 10 mg/kg i.p.) was 0%.
With `NC1CCCCC1N.[Cl-].[Cl-].[Pt+2]` (stereo not drawn) [Compound No. 3, Cis-dichloro(trans-l-1,2-diaminocyclohexane)platinum (II)] the T/C % ([1]; L 1210, 6.25 mg/kg i.p.) was 316%, the T/C % ([1]; L 1210, 12.5 mg/kg i.p.) was 379% and the T/C % ([1]; L 1210, 25 mg/kg i.p.) was 88%. For the same compound, the T/C % ([1]; L 1210, 50 mg/kg i.p.) was 71%, the T/C % ([1]; L 1210, 100 mg/kg i.p.) was 0% and the T/C % ([1]; L 1210, 200 mg/kg i.p.) was 0%. The LD50 [2] was 14.1 mg/kg, the Evaluation ([3]; 1 mg/kg i.p.) was “++ (40-11%)” and the “Growth Rate T/C (%)” value ([3]; 1 mg/kg i.p.) was 18%. For the same compound, the Evaluation ([3]; 3 mg/kg i.p.) was “+++ (10-0%)” and the “Growth Rate T/C (%)” value ([3]; 3 mg/kg i.p.) was 2%.
Compound `CC(C(=O)[O-])C(=O)[O-].NC1CCCCC1N.[Pt+2]` [Compound No. 10, Cis-methylmalonato(cis-1,2-diaminocyclohexane)platinum (II)] has a T/C % ([4]; P 388, 20 mg/kg i.p.) of 102%, a T/C % ([4]; P 388, 40 mg/kg i.p.) of 121% and a T/C % ([4]; P 388, 80 mg/kg i.p.) of 133%.
